The values that follow come from patent publication US7495104B2, “Quinoline or quinazoline derivatives inhibiting auto-phosphorylation of fibroblast growth factor receptors” (Kirin Beer Kabushiki Kaisha, priority 2001, dated 2009).

Sequence of Bek (P21802 431-767 limits assumed): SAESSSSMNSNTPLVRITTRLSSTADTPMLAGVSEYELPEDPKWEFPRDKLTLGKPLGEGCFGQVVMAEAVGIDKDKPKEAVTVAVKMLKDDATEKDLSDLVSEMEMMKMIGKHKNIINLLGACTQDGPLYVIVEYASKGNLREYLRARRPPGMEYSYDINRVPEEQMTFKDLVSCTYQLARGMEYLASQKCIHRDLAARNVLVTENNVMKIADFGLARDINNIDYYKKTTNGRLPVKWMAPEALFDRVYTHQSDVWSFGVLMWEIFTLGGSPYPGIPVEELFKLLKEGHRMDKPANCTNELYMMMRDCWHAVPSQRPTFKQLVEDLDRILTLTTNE

In this assay the target is Bek (Homo sapiens, UniProt P21802). Put plainly: Inhibitory activity against Bek-autophosphorylation using ELISA method in OCUM-2MD3 cells. Type of assay: cell-based. Conditions: 1 hr with compound, read-out: IC50 (concentration necessary for inhibiting 50% of Bek-phosphorylation). In a few lines:
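Sandwich ELISA (anti-phosphotyrosine capture, anti-Bek detection, peroxidase, 450 nm) measured Bek autophosphorylation in OCUM-2MD3 lysates after 1 hr compound treatment at 37° C in 0.1% serum medium. IC50 derived by scaling between no-drug (100%) and excess positive control at 1000 nM (0%).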
Consider `COc1cc2c(Oc3ccc(Nc4ccc(C(C)(C)C)cc4)cc3)ccnc2cc1OCCN1CCCCCC1` [Compound 50, {4-[7-(2-Azepan-1-ylethoxy)-6-methoxyquinolin-4-yloxy]phenyl}-(4-tert-butylphenyl)amine], for which the IC50 was found to be 35 nM.

`COc1cc2c(Oc3ccc(Nc4ccc(C(C)(C)C)cc4)cc3)ccnc2cc1OCCCN1CC(C)OC(C)C1` (stereo not shown) [Compound 232, (4-Tert-butyl-phenyl)-(4-{7-[3-(2,6-dimethyl-morpholin-4-yl)-propoxy]-6-methoxy-quinolin-4-yloxy}-phenyl)-amine]: the IC50 was 103 nM.

Turning to `COc1cc2nccc(Oc3ccc(NC(=O)NCCC(C)(C)C)c(C)c3)c2cc1OC` [Compound 136, 1-[4-(6,7-Dimethoxy-quinolin-4-yloxy)-2-methyl-phenyl]-3-(3,3-dimethyl-butyl)-urea], the IC50 is 56.2 nM.

As for `COc1cc2c(Oc3ccc(NC(=O)NCCC(C)(C)C)cc3)ccnc2cc1OCC(=O)O` [Compound 221, (4-{4-[3-(3,3-Dimethyl-butyl)-ureido]-phenoxy}-6-methoxy-quinolin-7-yloxy)-acetic acid], the IC50 was 762 nM.

With `COc1cc2c(Oc3ccc(Nc4ccc(C(C)(C)C)cc4)cc3)ccnc2cc1OCC1CCCN(C)C1` (stereo not shown) [Compound 56, (4-Tert-butylphenyl)-{4-[6-methoxy-7-(1-methylpiperidin-3-ylmethoxy)quinolin-4-yloxy]phenyl}amine], the IC50 is 405 nM.

For `COc1cc2c(Oc3ccc(NC(=O)NCCC(C)(C)C)c(F)c3)ccnc2cc1OC(=O)N1CCC(N2CCCCC2)CC1` [Compound 230, 4-{4-[3-(3,3-Dimethyl-butyl)-ureido]-3-fluoro-phenoxy}-6-methoxy-quinolin-7-yl [1,4′]bipiperidineyl-1′-carboxylate], the IC50 was found to be 32.1 nM.

In the case of `COc1cc2c(Oc3ccc(Nc4ccc(C(C)(C)C)cc4)cc3)ccnc2cc1OCCN(C)C` [Compound 40, N1-[4-(Tert-butyl)phenyl]-4-({7-[2-(dimethylamino)ethoxy]-6-methoxy-4-quinolyl}oxy)aniline], the IC50 was determined as 924 nM.

`COc1cc2c(Oc3ccc(NC(=O)NCCC(C)(C)C)cc3)ccnc2cc1OCCCN1C[C@@H](C)O[C@@H](C)C1` [Compound 200, 1-(3,3-Dimethyl-butyl)-3-(4-{7-[3-(2,6-dimethyl-morpholin-4-yl)-propoxy]-6-methoxy-quinolin-4-yloxy}-phenyl)-urea]: the IC50 came to 21.1 nM.

Consider `COc1cc2c(Oc3ccc(Nc4ccc(C(C)(C)C)cc4)cc3)ccnc2cc1OCCN1CCC(OC)CC1` [Compound 280, (4-Tert-butyl-phenyl)-(4-{6-methoxy-7-[2-(4-methoxy-piperidin-1-yl)-ethoxy]-quinolin-4-yloxy}-phenyl)-amine], for which the IC50 is 278 nM.

Turning to `COc1cc2c(Oc3ccc(Nc4ccc(C(C)(C)C)cc4)cc3Cl)ccnc2cc1OCCN1CCC(O)CC1` [Compound 307, 1-(2-{4-[4-(4-Tert-butyl-phenylamino)-2-chloro-phenoxy]-6-methoxy-quinolin-7-yloxy}-ethyl)-piperidin-4-ol], the IC50 stood at 379 nM.

Consider `COc1cc2c(Oc3ccc(Nc4ccc(C(C)(C)C)cc4)c(Cl)c3)ccnc2cc1OCCCN1CCC(CO)CC1` [Compound 277, [1-(3-{4-[4-(4-Tert-butyl-phenylamino)-3-chloro-phenoxy]-6-methoxy-quinolin-7-yloxy}-propyl)-piperidin-4-yl]-methanol], for which the IC50 came to 617 nM.

With `COc1cc2c(Oc3ccc(Nc4ccc(C(C)(C)C)cc4)cc3)ccnc2cc1OCC(O)CN1CCCC1` (stereo not shown) [Compound 61, 1-{4-[4-(4-Tert-butyl-phenylamino)phenoxy]-6-methoxyquinolin-7-yloxy}-3-pyrrolidin-1-ylpropan-2-ol], the IC50 is 187 nM.

Take `COc1cc2c(Oc3ccc(NC(=O)NCCC(C)(C)C)cc3Cl)ccnc2cc1OCCCN1CCC(CCO)CC1` [Compound 316, 1-[3-Chloro-4-(7-{3-[4-(2-hydroxy-ethyl)-piperidin-1-yl]-propoxy}-6-methoxy-quinolin-4-yloxy)-phenyl]-3-(3,3-dimethyl-butyl)-urea]: the IC50 was found to be 85.1 nM.
